Measured values: US10544138B2, “Tricyclic kinase inhibitors of MELK and methods of use” (Dana-Farber Cancer Institute, Inc., priority 2015, dated 2020)

Key:
[1] = test system: Cyclin B1, MELK, and Aurora B; experiment: Spindle assembly checkpoint signaling, abundance of mitotic factors by immunoblotting; type: cell-based; conditions: nocodazole- or paclitaxel-arrested cells
Protocol: Mitotic cells were treated with THZ-4-63-1 at indicated concentrations for 4 h. Cells were collected for immunoblotting. Panel B contains time-lapse images of U2OS-(H2B-GFP) cells treated with THZ-4-63-1 (5 μM). […] Panel C contains blots showing proteasome-mediated degradation of Cyclin B1, Aurora B and MELK in THZ-4-63-1-induced mitotic slippage. Mitotic cells were treated as in Panel A with THZ-4-63-1 (5 μM), or MG132 (10 μM), or both for 4 h. Panel D contains a graph showing quantification of cell proliferation in the indicated breast cancer cell lines, which were treated with vehicle control or THZ-4-63-1 for one week (Top) and also contains bright-field images acquired from control cells or cells treated with THZ-4-63-1 (111 nM) (Bottom). […] Cells were treated with indicated drugs, and harvested in ten days for quantification of cell growth. The bold curve depicts the theoretic prediction of an additive action between paclitaxel and THZ-4-63-1.
In Panel A, paclitaxel-arrested cells were treated with THZ-4-63-1 at indicated concentrations for 4 h. Cells were collected for immunoblotting. In Panel B, nocodazole- (top) or paclitaxel-arrested mitotic cells were treated with vehicle control or THZ-4-63-1 (5 μM) for increasing time. Cell lysates were collected for immunoblotting. […]

[2] = test system: MDA-MB-468 cells; experiment: Live imaging of chromosome alignment in MDA-MB-468 GFP-H2B cells; type: cell-based, human; conditions: 1 μM
Protocol: MDA-MB-468 cells stably expressing GFP-H2B were treated with vehicle control, or 1 μM THZ-4-63-1, and immediately subjected to live imaging. Time given in hours:minutes, relative to the starting point of treatment. […] Each dot represent an individual mitotic event.
To utilize this novel compound for probing the roles of MELK in mitosis, we first treated asynchronized U2OS cells with THZ-4-63-1 (1 μM), and subjected the cells for live-cell imaging. The fusion protein GFP-Histone H2B was stably introduced into the cells to facilitate observing chromosome dynamics^2,7. […] MELK inhibition also delayed mitotic progression in human breast cancer cell line, MDA-MB-468 (FIG. 6). […] Together, these findings indicate that MELK is novel regulator for the normal progression of mitosis, and that inactivation or depletion of MELK induces a metaphase-like arrest in cancer cells.

[3] = test system: metaphase chromosome alignment; experiment: Metaphase chromosome alignment, immunofluorescence after MG132; type: cell-based; conditions: 5 μM for 4 h followed by MG132 (10 μM) 1 h
Protocol: U2OS-GFP-H2B cells were treated with vehicle control (0.02% DMSO, v/v) or 1 μM THZ-4-63-1, and subjected to live imaging. Time is given in hours:minutes, relative to the initial time of drug treatment. The arrow points to chromosomes that haven't incorporated into the metaphase plate. […] MDA-MB-468 cells expressing tet-on-shMELK and GFPH2B cells were treated with doxycycline for three days, before subjected to live imaging. Panel D contains images of immunoblotting of lysates from cells treated as in Panel C. Panel E contains images showing mitotic cell death in a cell treated with THZ-4-63-1. The table indicates the quantification of cell death events. Panel F contains images showing that treatment with THZ-4-63-1 impairs chromosome alignment. Cells were treated with DMSO control, or THZ-4-63-1 (5 μM) for 4 hours, followed by MG132 (10 μM) for 1 h. Cells were fixed and stained with anti-CREST, anti-α-tubulin, and DAPI to visualize chromosomes and kinetochores. The histogram indicates the quantifications of cells in metaphase with misaligned chromosomes.
Indeed, we observed in asynchronized cells that MELK inhibition caused the appearance of scatted chromosome near the metaphase plate (arrowed, FIG. 2A). […]

[4] = biological target: PLK1 (Homo sapiens, UniProt P53350); experiment: Recombinant mitotic kinase assay, PLK1; type: biochemical; conditions: recombinant kinases
PLK1, sequence (P53350 whole entry, species assumed): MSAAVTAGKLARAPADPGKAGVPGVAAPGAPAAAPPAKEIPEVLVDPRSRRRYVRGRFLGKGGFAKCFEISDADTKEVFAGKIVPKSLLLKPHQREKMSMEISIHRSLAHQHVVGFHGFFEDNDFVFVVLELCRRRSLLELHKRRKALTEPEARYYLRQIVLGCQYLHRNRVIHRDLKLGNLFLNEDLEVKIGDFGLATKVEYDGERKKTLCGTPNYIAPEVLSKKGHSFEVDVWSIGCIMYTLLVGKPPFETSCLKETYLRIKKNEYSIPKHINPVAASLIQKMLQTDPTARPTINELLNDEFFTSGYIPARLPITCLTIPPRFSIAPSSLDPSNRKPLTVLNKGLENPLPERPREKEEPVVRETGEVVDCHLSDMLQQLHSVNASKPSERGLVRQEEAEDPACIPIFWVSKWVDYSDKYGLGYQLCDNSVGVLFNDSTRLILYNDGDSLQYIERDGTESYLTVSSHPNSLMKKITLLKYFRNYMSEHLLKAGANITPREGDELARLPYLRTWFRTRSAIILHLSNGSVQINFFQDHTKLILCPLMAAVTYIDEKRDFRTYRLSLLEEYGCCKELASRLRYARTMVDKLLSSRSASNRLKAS
Protocol: […] assays were performed with recombinant protein of the indicated mitotic kinase (left) and AMPK family kinases (right) in the presence of THZ-4-63-1. […] Cells were treated with nocodazole (100 ng/ml) for 18 h or not treated (Asyn., asynchronous). Nocodazole-arrested mitotic cells (M) were isolated via shake-off. The attached cells enriched in G2 phase (G2) were harvested. A portion of the mitotic cells were washed off nocodazole and released into G1 phase after 4 hours of incubation (G1). […] In Panel D, mitotic lysates were prepared from the indicated cells, and treated with λ-phosphatase at 30° C. In Panel E, nocodazole-arrested mitotic cells were treated with increasing concentration of THZ-4-63-1 for 30 min. Cell lysates were subjected to immunoblotting.
To discover a selective MELK inhibitor, a few molecule scaffolds with the potential of binding to MELK were identified, including 2,4-disubstituted pyrimidines and benzonaphthyridinones. […] To investigate if THZ-4-63-1 confers selective inhibition on MELK, we tested its effect on other mitotic kinases. In assays using recombinant kinases, MELK kinase activity was 20-fold more sensitive to THZ-4-63-1, than that of Aurora A, Aurora B, CDK1, or PLK1 (FIG. 1B).

CN(C)Cc1ccc(-n2c(=O)ccc3cnc4ccc(-c5cc(Cl)c(O)c(Cl)c5)cc4c32)cc1 [THZ-4-63-1]
Protein amount of mitotic factors (Cyclin B1, MELK, Aurora B) [1]: efficiently reduced the protein amount of these mitotic factors
Chromosome alignment [2]: inhibits chromosome alignment
Cells with failure in metaphase chromosome alignment [3]: approximately 80%
MELK kinase activity more sensitive than that of PLK1 [4]: 20 fold
